In one data set the target is DENV-2 NS2B-NS3 protease (Dengue virus type 2, UniProt P29990). Description: Trans-cleavage FRET assay with DENV-2 NS2B-NS3 protease. It is filed as cell-based. As to conditions: for inhibition at 10 µM: read-out: Reduction of DENV-2 NS2B-NS3 protease activity.
For data set [1], the system named is DENV-2 strain 16681. Description: In vitro infectivity assay (NS4B immunofluorescence/DAPI) in Vero E6 cells. It is filed as cell-based. As to conditions: for EC50: Dengue virus, DENV2, Vero C1008, 96 h, read-out: Inhibition of DENV-2 Infectivity (EC50, μM); for Selectivity Index (CC50/EC50): CC50 Vero E6 / EC50 infectivity.
The next data set deals with DENV-2. Briefly: Time-of-addition/removal assay with DENV-2. Type of data set: cell-based. As to conditions: Dengue virus, DENV2; compound applied 2 h after infection, 18 h incubation; read-out: EC50 for viral infectivity, post-entry treatment.
The test system of data set [2] is DENV-2 strain 16681. Briefly: Virus yield assay (TCID50). Type of data set: cell-based. The note with it: Dengue virus, DENV2, 96 h post-treatment.
The nature of a further data set: MTT cytotoxicity assay. Type of data set: cell-based, African green monkeys. As to conditions: African green monkey, Vero E6 cells. (In general: Tetrazolium assays rely on reduction of a dye to a coloured formazan, in cell work by metabolically active cells.)
[3] abbreviates: trans-cleavage FRET assay, cells expressing CFP-trrg-YFP transfected with DENV-2 NS2B-NS3.

Chain of DENV-2 NS2B-NS3 protease (P29990 1476-2093): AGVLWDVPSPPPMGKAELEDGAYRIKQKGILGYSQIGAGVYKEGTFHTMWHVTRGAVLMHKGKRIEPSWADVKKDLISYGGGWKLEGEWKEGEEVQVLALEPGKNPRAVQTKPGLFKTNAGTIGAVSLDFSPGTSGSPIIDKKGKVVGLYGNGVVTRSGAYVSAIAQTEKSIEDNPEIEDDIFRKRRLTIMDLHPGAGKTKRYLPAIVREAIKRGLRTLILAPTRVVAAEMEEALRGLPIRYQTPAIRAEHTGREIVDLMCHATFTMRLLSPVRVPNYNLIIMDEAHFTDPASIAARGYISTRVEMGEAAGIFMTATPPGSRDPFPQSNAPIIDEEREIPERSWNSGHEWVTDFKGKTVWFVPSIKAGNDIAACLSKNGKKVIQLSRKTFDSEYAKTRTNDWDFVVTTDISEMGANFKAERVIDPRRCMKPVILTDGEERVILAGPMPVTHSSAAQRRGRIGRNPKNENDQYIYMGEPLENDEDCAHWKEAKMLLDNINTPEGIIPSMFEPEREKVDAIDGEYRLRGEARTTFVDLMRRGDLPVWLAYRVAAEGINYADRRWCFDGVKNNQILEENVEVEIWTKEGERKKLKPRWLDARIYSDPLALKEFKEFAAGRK
Chain of DENV-2 NS2B-NS3 protease (P29990 1346-1475): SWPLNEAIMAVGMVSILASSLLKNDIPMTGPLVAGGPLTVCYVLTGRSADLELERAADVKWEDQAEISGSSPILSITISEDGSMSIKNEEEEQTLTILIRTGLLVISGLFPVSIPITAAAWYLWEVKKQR

As for `CC1(C)[C@@H](O[C@H]2O[C@H](C(=O)O)[C@@H](O)[C@H](O)[C@H]2O[C@@H]2O[C@H](C(=O)O)[C@@H](O)[C@H](O)[C@H]2O)CC[C@]2(C)[C@H]3C(=O)C=C4[C@@H]5C[C@@](C)(C(=O)O)CC[C@]5(C)CC[C@@]4(C)[C@]3(C)CC[C@@H]12` [Compound 1, Glycyrrhizic acid, reference compound], the “NS2B-NS3 Protease (IC50, μM)” value at DENV-2 NS2B-NS3 protease (setting [3]) is “no inhibitory effect”.

Regarding `CCOC(=O)C(Cc1ccccc1)NC(=O)C1OC(OC2C(OC3CCC4(C)C(CCC5(C)C4C(=O)C=C4C6CC(C)(C(=O)NC(Cc7ccccc7)C(=O)OCC)CCC6(C)CCC45C)C3(C)C)OC(C(=O)NC(Cc3ccccc3)C(=O)OCC)C(O)C2O)C(O)C(O)C1O` (stereo not shown) [Compound 8], the inhibition at 10 µM at DENV-2 NS2B-NS3 protease is more than 20%.

The EC50 is the concentration that produces a half-maximal response. The CC50 is the concentration that lowers cell viability or growth by half. Read a low CC50 as harm at low concentration. Take `COC(=O)CCC(NC(=O)C1OC(OC2C(OC3CCC4(C)C(CCC5(C)C4C(=O)C=C4C6CC(C)(C(=O)O)CCC6(C)CCC45C)C3(C)C)OC(C(=O)NC(CCC(=O)OC)C(=O)OC)C(O)C2O)C(O)C(O)C1O)C(=O)OC` (stereo not shown) [Compound 11]: the EC50 in the data set with DENV-2 strain 16681 [1] was found to be 0.034 ± 0.001 µM; in the data set with DENV-2, 5 nM; in the data set on DENV-2 strain 16681 [2], 42 nM. At DENV-2 NS2B-NS3 protease, the inhibition at 10 µM was more than 20%. This molecule also had a CC50 at 96 h in the data set “MTT cytotoxicity assay” of more than 100000 nM.

`COC(=O)C(CCC(=O)O)NC(=O)C1OC(OC2C(OC3CCC4(C)C(CCC5(C)C4C(=O)C=C4C6CC(C)(C(=O)O)CCC6(C)CCC45C)C3(C)C)OC(C(=O)NC(CCC(=O)O)C(=O)OC)C(O)C2O)C(O)C(O)C1O` (stereo not shown) [Compound 12]: the inhibition at 10 µM at DENV-2 NS2B-NS3 protease is more than 20%.

The IC50 is the midpoint of a concentration-inhibition curve. Higher therefore signals weaker potency in that assay. Regarding `CCOC(=O)C(CC(C)C)NC(=O)C1OC(OC2C(OC3CCC4(C)C(CCC5(C)C4C(=O)C=C4C6CC(C)(C(=O)O)CCC6(C)CCC45C)C3(C)C)OC(C(=O)NC(CC(C)C)C(=O)OCC)C(O)C2O)C(O)C(O)C1O` (stereo not shown) [Compound 16], the inhibition at 10 µM at DENV-2 NS2B-NS3 protease was more than 20%. Also, on DENV-2 NS2B-NS3 protease (setting [3]), the IC50 is more than 10000 nM.

In the case of `CCOC(=O)CCNC(=O)C1OC(OC2C(OC3CCC4(C)C(CCC5(C)C4C(=O)C=C4C6CC(C)(C(=O)O)CCC6(C)CCC45C)C3(C)C)OC(C(=O)NCCC(=O)OCC)C(O)C2O)C(O)C(O)C1O` (stereo not shown) [Compound 17], in the data set with DENV-2 strain 16681 [1], the “Selectivity Index (CC50/EC50)” value is listed as more than 23. The EC50 in the data set on DENV-2 strain 16681 [1] was determined as 4.34 ± 0.008 µM; in the data set on DENV-2 it was 2990 nM; in the data set with DENV-2 strain 16681 [2], 790 nM. In addition, on DENV-2 NS2B-NS3 protease, the inhibition at 10 µM is more than 20%. The CC50 at 96 h in the data set “MTT cytotoxicity assay” is more than 100000 nM.

Regarding `COC(=O)CCCCCCNC(=O)C1OC(OC2C(OC3CCC4(C)C(CCC5(C)C4C(=O)C=C4C6CC(C)(C(=O)O)CCC6(C)CCC45C)C3(C)C)OC(C(=O)NCCCCCCC(=O)OC)C(O)C2O)C(O)C(O)C1O` (stereo not shown) [Compound 19], the “Selectivity Index (CC50/EC50)” value in the data set with DENV-2 strain 16681 [1] was more than 42. The EC50 turned out to be 2.34 ± 0.08 µM in the data set with DENV-2 strain 16681 [1], 1910 nM in the data set on DENV-2 and 430 nM with DENV-2 strain 16681 [2]. In addition, on DENV-2 NS2B-NS3 protease, the inhibition at 10 µM is more than 20%. The same molecule yielded a CC50 at 96 h in “MTT cytotoxicity assay” of more than 100000 nM.

Take `COC(=O)CCCCCCCCCCNC(=O)C1OC(OC2C(OC3CCC4(C)C(CCC5(C)C4C(=O)C=C4C6CC(C)(C(=O)O)CCC6(C)CCC45C)C3(C)C)OC(C(=O)NCCCCCCCCCCC(=O)OC)C(O)C2O)C(O)C(O)C1O` (stereo not shown) [Compound 20]: at DENV-2 NS2B-NS3 protease, the inhibition at 10 µM was more than 20%. In addition, the IC50 against DENV-2 NS2B-NS3 protease (setting [3]) is more than 10000 nM.

Turning to `CN(C)[C@@H]1C(O)=C(C(N)=O)C(=O)[C@@]2(O)C(O)=C3C(=O)c4c(O)cccc4[C@@](C)(O)[C@H]3C[C@@H]12` [T, tetracycline, reference compound], the inhibition at 10 µM at DENV-2 NS2B-NS3 protease was more than 20%.

The values above are taken from paper PMC11680386 (Viruses, 2024).
